Data as given in ChEMBL document CHEMBL4385630, “The synthesis and evaluation of quinolinequinones as anti-mycobacterial agents” (2019).
In brackets after ≈: the same amount, converted by molar mass. Activity calls are given as the source filed them. The calls are words filed in the database; no cut-off is given here.

Legend:
[1] = Electrochemical behavior of the compound in acetonitrile assessed as redox potential E1 at 1 mM using Ag/Ag+ electrode by cyclic voltammetry
[2] = Electrochemical behavior of the compound in acetonitrile assessed as redox potential E2 at 1 mM using Ag/Ag+ electrode by cyclic voltammetry
[3] = tested on: Mycobacterium tuberculosis; assay: Antimycobacterial activity against Mycobacterium tuberculosis MC2 6230 assessed as reduction in cell viability incubated for 5 days by resazurin based method; format: functional; details: MC2 6230, 120 h
[4] = tested on: Mycolicibacterium smegmatis MC2 155; assay: Activation of NDH-2 in Mycobacterium smegmatis MC2 155 inverted membrane vesicles assessed as increase in oxygen consumption rate in presence of NADH by fluorespirometry
[5] = tested on: Mycobacterium tuberculosis; assay: Antimycobacterial activity against Mycobacterium tuberculosis incubated for 7 days by resazurin dye based assay; format: functional; details: 168 h
[6] = Electrochemical behavior of the compound in acetonitrile/tolunene assessed as redox potential E1 at 1 mM using Ag/Ag+ electrode by cyclic voltammetry
[7] = Electrochemical behavior of the compound in acetonitrile/tolunene assessed as redox potential E2 at 1 mM using Ag/Ag+ electrode by cyclic voltammetry
[8] = tested on: Mycobacterium tuberculosis; assay: Antimycobacterial activity against Mycobacterium tuberculosis H37Rv incubated fro 96 hrs; format: functional

Compound | Activity [1] [V] | Activity [2] [V] | MIC [3] [µM] | Activity [4] | MIC [5] [µM] | Activity [6] [V] | Activity [7] [V] | MIC [8] [µM]
Cc1ccc2c(n1)C(=O)C(Nc1ccccc1)=C(Cl)C2=O | -0.44 | -0.9 | 256 (≈ 76.5 µg/mL) | – | – | – | – | –
O=C1C(Nc2ccccc2)=C(Cl)C(=O)c2ncccc21 | -0.46 | -1.06 | > 512 | – | – | – | – | –
CCCCCCCCNC1=C(Cl)C(=O)c2nc(C)ccc2C1=O | -0.72 | -1.27 | 128 (≈ 42.9 µg/mL) | – | – | – | – | –
COc1ccc(CNC2=C(Cl)C(=O)c3ncccc3C2=O)cc1 | -0.61 | -1.18 | 32 (≈ 10.5 µg/mL) | – | – | – | – | –
Cc1ccc2c(n1)C(=O)C(Cl)=C(NC(C)(C)C)C2=O | -0.69 | -1.25 | 256 (≈ 71.4 µg/mL) | – | – | – | – | –
Cc1ccc2c(n1)C(=O)C(Cl)=C(NCCc1ccccc1)C2=O | -0.73 | -1.3 | 128 (≈ 41.8 µg/mL) | – | – | – | – | –
CCCCCCCc1ccc(NC2=C(Cl)C(=O)c3ncccc3C2=O)cc1 | -0.58 | -1.15 | 64 (≈ 24.5 µg/mL) | – | – | – | – | –
CC1=CC(=O)c2ccccc2C1=O | -0.7 | -1.27 | – | – | – | – | – | –
O=C1C(NCCc2ccccc2)=C(Cl)C(=O)c2ncccc21 | -0.6 | -1.15 | 128 (≈ 40 µg/mL) | – | – | – | – | –
COc1ccc(CNC2=C(Cl)C(=O)c3ccc(C)nc3C2=O)cc1 | -0.52 | -1.1 | 16 (≈ 5.48 µg/mL) | – | – | – | – | –
CCCCCCCCNC1=C(Cl)C(=O)c2cccnc2C1=O | -0.68 | -1.27 | 64 (≈ 20.5 µg/mL) | – | – | – | – | –
C#CCNC1=C(Cl)C(=O)c2ncccc2C1=O | -0.5 | -1.1 | 8 (≈ 1.97 µg/mL) | Active | – | – | – | –
CCCNC1=C(Cl)C(=O)c2nc(C)ccc2C1=O | -0.6 | -1.17 | 512 (≈ 136 µg/mL) | – | – | – | – | –
Cc1ccc2c(n1)C(=O)C(Cl)=C(Nc1ccccc1)C2=O | -0.47 | -1.05 | 512 (≈ 153 µg/mL) | – | – | – | – | –
CCCNC1=C(Cl)C(=O)c2cccnc2C1=O | -0.59 | -1.16 | 128 (≈ 32.1 µg/mL) | – | – | – | – | –
NNC(=O)c1ccncc1 [ISONIAZID] | – | – | 0.2 (≈ 0.0274 µg/mL) | – | – | – | – | –
O=C1C(Cl)=C(Nc2ccccc2)C(=O)c2ncccc21 | -0.42 | -1 | 512 (≈ 146 µg/mL) | – | – | – | – | –
COc1ccc(CNC2=C(Cl)C(=O)c3cccnc3C2=O)cc1 | -0.63 | -1.24 | 16 (≈ 5.26 µg/mL) | – | – | – | – | –

Compound | Activity [1] [V] | Activity [2] [V] | MIC [3] [µM] | Activity [4] | MIC [5] [µM] | Activity [6] [V] | Activity [7] [V] | MIC [8] [µM]
Cc1ccc2c(n1)C(=O)C(Cl)=C(N1CCCCC1)C2=O | -0.57 | -1.13 | 128 (≈ 37.2 µg/mL) | – | – | – | – | –
CCCCCCCCNC1=C(Cl)C(=O)c2ncccc2C1=O | -0.67 | -1.26 | 16 (≈ 5.13 µg/mL) | – | – | – | – | –
O=C1C(Cl)=C(NCCc2ccccc2)C(=O)c2ncccc21 | -0.64 | -1.21 | 16 (≈ 5 µg/mL) | – | – | – | – | –
CCCCCCCc1ccc(NC2=C(Cl)C(=O)c3cccnc3C2=O)cc1 | -0.57 | -1.08 | 32 (≈ 12.3 µg/mL) | – | – | – | – | –
Cc1ccc2c(n1)C(=O)C(NCCc1ccccc1)=C(Cl)C2=O | -0.7 | -1.3 | 16 (≈ 5.23 µg/mL) | – | – | – | – | –
CCCNC1=C(Cl)C(=O)c2ccc(C)nc2C1=O | -0.56 | -0.97 | 128 (≈ 33.9 µg/mL) | – | – | – | – | –
O=C1C(NCCCl)=C(Cl)C(=O)c2ncccc21 | – | – | – | – | 8 (≈ 2.17 µg/mL) | – | – | –
CCCCCCCCCCCCCCc1ccc(NC2=C(Cl)C(=O)c3cccnc3C2=O)cc1 | – | – | > 512 | – | – | -0.44 | -1 | –
CCCCCCCCCCCCCCc1ccc(NC2=C(Cl)C(=O)c3ncccc3C2=O)cc1 | – | – | > 512 | – | – | -0.78 | -1.1 | –
CCCNC1=C(Cl)C(=O)c2ncccc2C1=O | -0.6 | -1.16 | 128 (≈ 32.1 µg/mL) | – | – | – | – | –
C#CCNC1=C(Cl)C(=O)c2nc(C)ccc2C1=O | -0.55 | -1.05 | 64 (≈ 16.7 µg/mL) | – | – | – | – | –
Cc1ccc2c(n1)C(=O)C(N(C)C)=C(Cl)C2=O | -0.6 | -1.13 | > 512 | – | – | – | – | –
C#CCNC1=C(Cl)C(=O)c2cccnc2C1=O | -0.49 | -1.07 | 128 (≈ 31.6 µg/mL) | – | – | – | – | –
O=C1C(NC2CCCCCCC2)=CC(=O)c2ncccc21 | – | – | – | – | – | – | – | 3.5 (≈ 0.995 µg/mL)
C#CCNC1=C(Cl)C(=O)c2ccc(C)nc2C1=O | -0.51 | -1.1 | 256 (≈ 66.7 µg/mL) | – | – | – | – | –
Cc1ccc2c(n1)C(=O)C(Cl)=C(N(C)C)C2=O | -0.62 | -1.11 | 512 (≈ 128 µg/mL) | – | – | – | – | –
Cc1ccc2c(n1)C(=O)C(NC(C)(C)C)=C(Cl)C2=O | -0.59 | -1.1 | > 512 | – | – | – | – | –
Cc1ccc2c(n1)C(=O)C(N1CCCCC1)=C(Cl)C2=O | -0.61 | -1.17 | 256 (≈ 74.4 µg/mL) | – | – | – | – | –
